Experimental data: patent US20100056516A1 (priority 2006, published 2010)
Like-named read-outs stand apart in the source and are kept apart here.

Columns and labels:
[1] = target: HIV-1 reverse transcriptase (RNase H) (Human immunodeficiency virus type 1 group M subtype B, UniProt P04585); assay: ASH assay: RNase H mediated RNA cleavage (ECL format, BioVeris M384); type: biochemical
Protocol: Potency of a substance as an RNase H inhibitors can be determined by measuring its ability prevent RNase H catalyzed cleavage of the RNA strand in a RNA/DNA hybrid duplex substrate. RNase H activity is measured using a substrate generated by annealing the oligoribo-nucleotide 5′-rCrCrUrCrUrCrArArArArArCrArGrGrArGrCrArGrArArArGrArCrArArG (SEQ ID NO:1) to the oligodeoxyribonucleotide 5′-Biotin-[…] (SEQ ID NO:2). […] (SEQ ID NO:3). The resulting double-stranded duplex DNA product is quantitated in an ALPHA screen format using [streptavidin- and anti-fluorescein-coated beads (Packard Bioscience) following the manufacturer's guidelines and reading on a Fusion AlphaScreen instrument. Alternatively, the released 5′-Biotinylated DNA is annealed to a complementary oligodeoxyribonucleotide: 5′-ruthenium-[…] (SEQ ID NO:3). The resulting double-stranded duplex DNA product is quantitated in an ECL screen format using Dynabeads M280 coated with streptavidin (BioVeris Corporation) following the manufacturer's guidelines and reading on a BioVeris M384 Analyzer.

[2] = target: HIV integrase (Human immunodeficiency virus type 1 group M subtype B, UniProt P04585); assay: integrase strand transfer assay (STA); type: biochemical
[3] = tested on: HXB2 virus; assay: microbe, parasite or virus in culture; type: cell-based, HIV
Method in brief: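 Single-cycle infectivity assay in HeLa P4-2 cells measuring inhibition of acute HIV infection, using HXB2 virus.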

[4] = tested on: HeLa P4-2 cell line; conditions: human
Text: The HeLa P4-2 cell line used in the single cycle HIV infectivity Assay B of Example 270 was also used to determine compound cytotoxicity in the absence of viral infection.

[5] = IC50 in the STA assay, integrase strand transfer
[6] = STA (IC50, μM), integrase strand-transfer assay, Example 269
[7] = Human immunodeficiency virus 1, HXB2, HeLaP4-2, read-out: SCIA-B (IC50, μM)
[8] = Human immunodeficiency virus 1, HXB2, HeLaP4-2, read-out: antiviral IC50 (SCIA-B)
[9] = RNase H mediated RNA cleavage assay, Example 269, read-out: ASH (IC50)
[10] = integrase strand transfer, read-out: IC50 in the STA assay
[11] = integrase strand-transfer assay, Example 269, read-out: STA (IC50)

CCOC(=O)c1c(O)c2c(-c3ccccc3)ccnc2n(O)c1=O [Example 4, Ethyl 1,4-dihydroxy-2-oxo-5-phenyl-1,2-dihydro-1,8-naphthylidine-3-carboxylate] showed an IC50 [1] of 260 nM, an IC50 [2, 5] of less than 50 µM and an IC50 [2, 6] of 0.24 µM. The IC50 [3, 7] was 0.53 µM, the IC50 [3, 8] was less than 100 µM and the “Cytotoxicity (LD50, μM)” value [4] was 50 µM.

CCOC(=O)c1c(O)c2cc(-c3cccc(O)c3)cnc2n(O)c1=O [Example 59, Ethyl 1,4-dihydroxy-6-(3-hydroxyphenyl)-2-oxo-1,2-dihydro-1,8-naphthyridine-3-carboxylate] was tested, and the IC50 [1, 9] was 150 nM, the IC50 [2, 10] was less than 50 µM and the IC50 [2, 11] was 0.022 µM. For the same compound, the IC50 [3, 7] was 0.05 µM, the IC50 [3, 8] was less than 100 µM and the “Cytotoxicity (LD50, μM)” value [4] was 20 µM.

In the case of O=c1cc(NCc2cccc(CN3CCOCC3)c2)c2cccnc2n1O [Example 151, 1-hydroxy-4-{[3-(4-morpholinylmethyl)benzyl]amino}-1,8-naphthyridin-2(1H-one)], the IC50 [1] is reported as 160 nM, the IC50 [2, 5] is reported as less than 50 µM and the IC50 [2, 6] is reported as 0.23 µM. The IC50 [3, 7] was 0.13 µM, the IC50 [3, 8] was less than 100 µM and the “Cytotoxicity (LD50, μM)” value [4] was 15 µM.

O=c1cc(NCc2ccc(CN3CCOCC3)cc2)c2cccnc2n1O [Example 111, 1-Hydroxy-4-{[4-(morpholin-4-ylmethyl)benzyl]amino}-1,8-naphthyridin-2(1H)-one] gave an IC50 [1] of 46 nM, an IC50 [2, 5] of less than 50 µM and an IC50 [2, 6] of 1.8 µM. For the same compound, the IC50 [3, 7] was 0.12 µM, the IC50 [3, 8] was less than 100 µM and the “Cytotoxicity (LD50, μM)” value [4] was greater than 100 µM.

O=c1c(Cc2ccccc2)c(O)c2cc(Cc3ccccc3)cnc2n1O [Example 66, 3,6-Dibenzyl-l,4-dihydroxy-1,8-naphthyridin-2(1H)-one] gave an IC50 [1, 9] of 490 nM, an IC50 [2, 10] of less than 50 µM and an IC50 [2, 11] of 0.02 µM. For the same compound, the IC50 [3, 7] was 0.38 µM, the IC50 [3, 8] was less than 100 µM and the “Cytotoxicity (LD50, μM)” value [4] was 34 µM.

O=c1cc(N2CCc3ccc(-c4cccnc4)cc3C2)c2cccnc2n1O [Example 255, 1-hydroxy-4-(7-pyridin-3-yl-3,4-dihydroisoquino1in-2(1H)-yl)-1,8-naphthyridin-2(1H)-one] gave an IC50 [1] of 120 nM, an IC50 [2, 5] of less than 50 µM and an IC50 [2, 6] of 1.8 µM. The IC50 [3, 7] was 0.17 µM, the IC50 [3, 8] was less than 100 µM and the “Cytotoxicity (LD50, μM)” value [4] was 5.1 µM.
